In US8067447B2, “Modulators of glucocorticoid receptor, AP-1, and/or NF-κB activity and use thereof” (Bristol-Myers Squibb Company, priority 2006, dated 2011):
Where two headings read alike, the source gives them in different places.

Tests used:
[1] = molecular target: T1, human glucocorticoid receptor (Homo sapiens, UniProt P04150); experiment: Glucocorticoid Receptor Binding Assay (I), fluorescence polarization competitor kit (Fluormone GS Red); conditions: purified human recombinant full-length GR 2 nM, 1 nM Fluormone GS Red, FP; read-out: GR (Ki, nM) (GR Binding Assay (I))
T1 construct: purified human recombinant full-length glucocorticoid receptor (2 nM); purchased Invitrogen Part #2893
T1 sequence (P04150 1-777): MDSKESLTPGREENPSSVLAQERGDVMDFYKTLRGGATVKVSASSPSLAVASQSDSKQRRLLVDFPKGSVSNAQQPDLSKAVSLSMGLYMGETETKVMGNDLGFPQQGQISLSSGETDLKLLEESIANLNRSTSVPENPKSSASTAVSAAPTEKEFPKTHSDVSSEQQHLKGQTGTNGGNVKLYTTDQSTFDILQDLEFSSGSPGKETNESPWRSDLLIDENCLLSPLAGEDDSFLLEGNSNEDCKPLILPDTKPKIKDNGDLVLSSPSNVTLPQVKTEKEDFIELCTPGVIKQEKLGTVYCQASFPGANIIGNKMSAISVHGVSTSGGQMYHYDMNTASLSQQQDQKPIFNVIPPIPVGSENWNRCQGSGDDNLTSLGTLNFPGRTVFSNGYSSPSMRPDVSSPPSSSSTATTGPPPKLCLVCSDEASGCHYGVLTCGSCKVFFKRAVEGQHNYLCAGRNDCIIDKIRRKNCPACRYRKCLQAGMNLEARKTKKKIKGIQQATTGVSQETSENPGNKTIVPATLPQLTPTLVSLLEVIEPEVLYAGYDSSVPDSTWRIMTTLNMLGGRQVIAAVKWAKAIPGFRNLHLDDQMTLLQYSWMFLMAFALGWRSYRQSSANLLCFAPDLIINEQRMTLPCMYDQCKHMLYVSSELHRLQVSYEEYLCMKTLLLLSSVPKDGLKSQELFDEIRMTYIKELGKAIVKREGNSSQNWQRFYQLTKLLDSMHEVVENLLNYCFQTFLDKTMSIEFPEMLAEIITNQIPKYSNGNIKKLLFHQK
Protocol: Briefly, purified human recombinant full-length glucocorticoid receptor (2 nM) was mixed with fluorescently labeled glucocorticoid (1 nM Fluormone GS Red) in the presence or absence of test compound. After two hour incubation at room temperature in the dark, the fluorescence polarization (FP) of the samples was measured. […] Test compounds were analyzed in the concentration range from 8.5E-05 μM to 5 μM.

[2] = test system: AP-1 induced transcriptional activity; experiment: Cellular Transrepressional Assay (AP-1 luciferase reporter in A549 cells, PMA-activated); assay type: cell-based; conditions: A549 cells with 7x AP-1 luciferase reporter, 10 ng/ml PMA, read-out: AP-1 (EC50, nM) (Cellular Transrepression Assay)
Protocol: To measure the ability of test molecules to inhibit AP-1 induced transcriptional activity an A549 cell was utilized which was stably transfected with a plasmid containing 7× AP-1 DNA binding sites (pAP-1-Luc plasmid, Stratagene Co. La Jolla, Calif.) followed by the gene for luciferase. Cells were activated with 10 ng/ml of […] (PMA) plus or minus test molecules for 7 hours. After 7 hours a luciferase reagent was added to measure luciferase enzymatic activity in the cell. After a 10 minute incubation of luciferase reagent with cells, luminescence was measured in a TopCount luminescence counter. Repression of AP-1 activity was calculated as the percentage decrease in the signal induced by PMA alone. Test molecules were analyzed in the concentration range from 0.1 nM to 40 μM. EC50s were determined by using standard curve fitting methods such as Excel fit (Microsoft Co.).

| Ki [1] | EC50 ([2]; Homo sapiens, A549, 7 h) | EC50 ([2]; 7 hours) | Structure (SMILES) |
| --- | --- | --- | --- |
| 2.9 nM | 904 nM | – | CC(C)(C)CNC(=O)C(C)(C)C(c1ccccc1)c1ccc2c(cnn2-c2ccc(F)cc2)c1 (centres unmarked) [Example 7, 3-(1-(4-fluorophenyl)-1H-indazol-5-yl)-2,2-dimethyl-N-neopentyl-3-phenylpropanamide] |
| 20 nM | 205 nM | – | CC(C)(C(=O)Nc1nccs1)C(c1ccccc1)c1ccc2c(cnn2CCO)c1 (centres unmarked) [Example 57, 3-(1-(2-hydrox-ethyl)-1H-indazol-5-yl)-2,2-dimethyl-3-phenyl-N-(thiazol-2-yl)propanamide] |
| 110 nM | > 10000 nM | – | CC(C)(C(=O)Nc1nncs1)C(c1ccccc1)c1ccc2c(cnn2-c2ccc(F)cc2C(F)(F)F)c1 (centres unmarked) [Example 92, 3-(1-(4-fluoro-2-(trifluoromethyl)phenyl)-1H-indazol-5-yl)-2,2-dimethyl-3-phenyl-N-(1,3,4-thiadiazol-2-yl)proponamide] |
| 3.7 nM | 3060 nM | – | CC(C)(C(=O)NCCC(F)(F)F)C(c1ccccc1)c1ccc2c(cnn2-c2ccc(F)cc2)c1 (centres unmarked) [Example 9, 3-(1-(4-fluorophenyl)-1H-indazol-5-yl)-2,2-dimethyl-3-phenyl-N-(3,3,3-trifluoropropyl)-propanamide] |
| 318 nM | > 10000 nM | – | CC(C)(C(=O)Nc1cc(O)[nH]n1)C(c1ccccc1)c1ccc2c(cnn2-c2ccc(F)cc2)c1 (centres unmarked) [Example 15, 3-(1-(4-fluorophenyl)-1H-indazol-5-yl)-N-(5-hydroxy-1H-pyrazol-3-yl)-2,2-dimethyl-3-phenylpropanamide] |
| 9.3 nM | 267 nM | – | CC(C)(C(=O)Nc1nncs1)C(c1ccccc1)c1ccc2c(cnn2CCCCO)c1 (centres unmarked) [Example 76, 3-(1-(4-hydroxybutyl)-1H-indazol-5-yl)-2,2-dimethyl-3-phenyl-N-(1,3,4-thiadiazol-2-yl)propanamide] |
| 14 nM | 1930 nM | – | CC(C)(C(=O)Nc1nncs1)C(c1ccccc1)c1ccc2c(cnn2Cc2ccccc2)c1 (centres unmarked) [Example 72, 3-(1-benzyl-1H-indazol-5-yl)-2,2-dimethyl-3-phenyl-N-(1,3,4-thiadiazol-2-yl)propanamide] |
| 19 nM | > 10000 nM | – | CC(C)(C(=O)Nc1nnc(C(F)(F)F)s1)C(c1ccccc1)c1ccc2c(cnn2-c2ccc(F)cc2)c1 (centres unmarked) [Example 25, 3-(1-(4-fluorophenyl)-1H-indazol-5-yl)-2,2-dimethyl-3-phenyl-N-(5-(trifluoromethyl)-1,3,4-thiadiazol-2-yl)propanamide] |
| 20 nM | 491 nM | – | CC(C)(C(=O)Nc1nncs1)C(c1ccccc1)c1ccc2c(cnn2-c2ccncc2)c1 (centres unmarked) [Example 82, 2,2-dimethyl-3-phenyl-3-(1-(pyridin-4-yl)-1H-indazol-5-yl)-N-(1,3,4-thiadiazol-2-yl)propanamide] |
| 17 nM | > 10000 nM | – | CC(C)(C(=O)Nc1nnn[nH]1)C(c1ccccc1)c1ccc2c(cnn2-c2ccc(F)cc2)c1 (centres unmarked) [Example 14, 3-(1-(4-fluorophenyl)-1H-indazol-5-yl)-2,2-dimethyl-3-phenyl-N-(1H-tetrazol-5-yl)propanamide] |
| 25 nM | 532 nM | – | CC(C)CCn1cc2cc(C(c3ccccc3)C(C)(C)C(=O)Nc3nncs3)ccc2n1 (centres unmarked) [Example 67, 3-(2-isopentyl-2H-indazol-5-yl)-2,2-dimethyl-3-phenyl-N-(1,3,4-thiadiazol-2-yl)propanamide] |
| 227 nM | 3520 nM | – | CCOC(=O)c1nnc(NC(=O)C(C)(C)C(c2ccccc2)c2ccc3c(cnn3-c3ccc(F)cc3)c2)s1 (centres unmarked) [Example 10, ethyl 5-(3-(1-(4-fluorophenyl)-1H-indazol-5-yl)-2,2-dimethyl-3-phenylprop-anamido)-1,3,4-thiadiazole-2-carboxylate] |
| 7.8 nM | 193 nM | – | CC(C)(C(=O)Nc1nccs1)C(c1ccccc1)c1ccc2[nH]ccc2c1 (centres unmarked) [Example 107, 3-(1H-Indol-5-yl)-2,2-dimethyl-3-phenyl-N-(thiazol-2-yl)propanamide] |
| 10 nM | > 10000 nM | – | CCc1nnc(NC(=O)C(C)(C)C(c2ccccc2)c2ccc3c(cnn3-c3ccc(F)cc3)c2)s1 (centres unmarked) [Example 20, N-(5-ethyl-1,3,4-thiadiazol-2-yl)-3-(1-(4-fluorophenyl)-1H-indazol-5-yl)-2,2-dimethyl-3-phenylpropanamide] |
| 11 nM | 49 nM | – | Cc1cnc(NC(=O)C(C)(C)C(c2ccccc2)c2ccc3c(cnn3-c3ccc(F)cc3)c2)s1 (centres unmarked) [Example 17, 3-(1-(4-fluorophenyl)-1H-indazol-5-yl)-2,2-dimethyl-N-(5-methylthiazol-2-yl)-3-phenylpropanamide] |
| 29 nM | > 10000 nM | – | CC(C)(C(=O)Nc1nccs1)C(c1ccccc1)c1ccc2c(cnn2CS(C)(=O)=O)c1 (centres unmarked) [Example 60, 2,2-dimethyl-3-(1-(methylsulfonylmethyl)-1H-indazol-5-yl)-3-phenyl-N-(thiazol-2-yl)propanamide] |
| 28 nM | > 10000 nM | – | Cc1nc(NC(=O)C(C)(C)C(c2ccccc2)c2ccc3c(cnn3-c3ccc(F)cc3)c2)sc1C (centres unmarked) [Example 24, N-(4,5-dimethylthiazol-2-yl)-3-(1-(4-fluorophenyl)-1H-indazol-5-yl)-2,2-dimethyl-3-phenylpropanamide] |
| 301 nM | 3350 nM | – | CC(C)(C(=O)Nc1nccs1)C(c1cc[n+]([O-])cc1)c1ccc2c(cnn2-c2ccc(F)cc2)c1 (centres unmarked) [Example 37, 3-(1-(4-Fluorophenyl)-1H-indazol-5-yl)-2,2-dimethyl-3-(pyridin-4-N-oxide-yl)-N-(thiazol-2-yl)propanamide] |
| 543 nM | > 10000 nM | – | CN1CCC(n2ncc3cc(C(c4ccccc4)C(C)(C)C(=O)Nc4nccs4)ccc32)CC1 (centres unmarked) [Example 59, 2,2-dimethyl-3-(1-(1-methylpiper-idin-4-yl)-1H-indazol-5-yl)-3-phenyl-N-(thiazol-2-yl)propanamide] |
| – | – | 0.23 nM | CC(C(=O)Nc1nncs1)C(c1ccccc1)c1ccc2c(cnn2-c2ccc(F)cc2)c1 (single isomer, unassigned) [Example 141-isomerC, 3-(1-(4-Fluorophenyl)-1H-indazol-5-yl)-2-methyl-3-phenyl-N-(1,3,4-thiadiazol-2-yl)propanamide] |
| 21 nM | 82 nM | – | CC(C)(C(=O)Nc1nccs1)C(c1ccc2c(cnn2-c2ccc(F)cc2)c1)C1CCCC1 (centres unmarked) [Example 35, 3-Cyclopentyl-3-(1-(4-fluorophenyl)-1H-indazol-5-yl)-2,2-dimethyl-N-(thiazol-2-yl)propanamide] |
| 3 nM | 1800 nM | – | CC(C)(C(=O)NCC(F)(F)F)C(c1ccccc1)c1ccc2c(cnn2-c2ccc(F)cc2)c1 (centres unmarked) [Example 8, 3-(1-(4-fluorophenyl)-1H-indazol-5-yl)-2,2-dimethyl-3-phenyl-N-(2,2,2-trifluoroethyl)prop-anamide] |
| 152 nM | > 10000 nM | – | CC(C)(C(=O)Nc1nncs1)C(c1ccccc1)c1ccc2c(cnn2CCc2ccccc2)c1 (centres unmarked) [Example 74, 2,2-dimethyl-3-(1-phenethyl-1H-indazol-5-yl)-3-phenyl-N-(1,3,4-thiadiazol-2-yl)propanamide] |
| 248 nM | > 10000 nM | – | O=C(Nc1nccs1)C1CC1c1ccc2c(cnn2-c2ccc(F)cc2)c1 (centres unmarked) [Example 103, 2-(1-(4-Fluorophenyl)-1H-indazol-5-yl)-N-(thiazol-2-yl)cyclopropanecarboxamide] |
| 60 nM | > 10000 nM | – | CC(C)(C(=O)Nc1nc2ccccc2s1)C(c1ccccc1)c1ccc2c(cnn2-c2ccc(F)cc2)c1 (centres unmarked) [Example 23, N-(benzyl[d]thiazol-2-yl)-3-(1-(4-fluorophenyl)-1H-indazol-5-yl)-2,2-dimethyl-3-phenylpropanamide] |
| – | – | > 10000 nM | O=C(Nc1nccs1)C1CC1(c1ccccc1)c1ccc2c(cnn2-c2ccc(F)cc2)c1 (stereo not drawn) [Example 99, Cis-2-(1-(4-fluorophenyl)-1H-indazol-5-yl)-2-phenyl-N-(thiazol-2-yl)cyclopropanecarboxamide] |
